Measured values taken from ChEMBL document CHEMBL3132802, “Azole derivatives as novel non-iron-chelating inhibitors of prolyl hydroxylase 3 for HIF-1 activation” (Medchemcomm, 2013).
Blank lines part the entries; values can stand above or below the compound they belong to. Activity calls are given as the source filed them. The rule behind the calls is not given here.

Columns and labels:
Prolyl hydroxylase EGLN3 = Prolyl hydroxylase EGLN3 (Homo sapiens, UniProt Q9H6Z9); assay: Inhibition of recombinant human PHD3 expressed in Escherichia coli using HIF19 peptide as substrate by fluorescence emission spectroscopy
NCI-H446 [1] = assay: Effect on HIF1alpha mRNA expression in human NCI-H446 cells after 12 hrs by RT-PCR analysis; format: functional, cell-based
NCI-H446 [2] = assay: Cytotoxicity against human NCI-H446 cells assessed as proliferation rate up to 200 uM after 24 hrs by MTT assay; format: cell-based; settings: nci-h446, 24 h
[3] = Cytotoxicity against human NCI-H446 cells assessed as cell survival up to 200 uM after 24 hrs by MTT assay; format: cell-based; settings: read-out: Survival

Chain of Prolyl hydroxylase EGLN3 (Q9H6Z9 whole entry): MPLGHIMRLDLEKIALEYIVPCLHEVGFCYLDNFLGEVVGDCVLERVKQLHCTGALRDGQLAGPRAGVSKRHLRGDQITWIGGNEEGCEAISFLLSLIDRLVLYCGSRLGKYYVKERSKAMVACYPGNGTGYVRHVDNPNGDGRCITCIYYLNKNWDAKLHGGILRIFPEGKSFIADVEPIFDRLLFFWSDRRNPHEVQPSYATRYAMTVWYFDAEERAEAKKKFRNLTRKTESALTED

Compound: c1ccc2[nH]cnc2c1 [BENZIMIDAZOLE]
IC50 (Prolyl hydroxylase EGLN3): > 100 µM

Compound: c1ccc2[nH]c(CCn3cncn3)nc2c1
Activity (NCI-H446 [1]): inactive
Activity (NCI-H446 [2]): > 80%

Compound: O=C(O)CCn1ccnc1
Activity (NCI-H446 [1]): inactive
viability at 24 h [3]: > 90%

Compound: c1ccc2[nH]c(CCn3nnc4ccccc43)nc2c1
Activity (NCI-H446 [1]): inactive
viability at 24 h [3]: > 90%

Compound: O=C(O)CCn1cncn1
Activity (NCI-H446 [1]): inactive
Activity (NCI-H446 [2]): > 80%

IC50 (Prolyl hydroxylase EGLN3): > 100 µM
Compound: c1ccc2[nH]nnc2c1 [BENZOTRIAZOLE]

Compound: O=C(O)CCn1cnc2ccccc21
Activity (NCI-H446 [1]): inactive
Activity (NCI-H446 [2]): > 80%

Compound: O=C(O)CCn1nnc2ccccc21
Activity (NCI-H446 [1]): inactive
viability at 24 h [3]: > 90%
